Measurements published in the supplement of paper PMC10307832.

Legend:
Test in all cases: relative viability (nuclei count vs DMSO), 5 days (fraction); higher = more cells survive
[1] = compound: Cc1ccc(C(=O)Nc2cccc(C(F)(F)F)c2)cc1Nc1cncc(C(N)=O)c1 [ALW-II-49-7] + NC(=O)Nc1cc(-c2cccc(F)c2)sc1C(=O)N[C@H]1CCCNC1 [AZD7762] (partner 0.2 µM)
Procedure, shortened: (§1)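 Medians of duplicate plates are given as relative viability. That measure is the nuclei count in treated wells divided by the count in vehicle wells. Counts were taken on 4× images of lung cancer cell lines in 1536-well plates, 5 days after pin-tool dosing the day after seeding with one drug alone or a fixed anchor-drug dose plus five library-drug doses (not always all listed) in √10 steps.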

[2] = compound: Cc1ccc(C(=O)Nc2cccc(C(F)(F)F)c2)cc1Nc1cncc(C(N)=O)c1 [ALW-II-49-7] + CC(=O)c1c(C)c2cnc(Nc3ccc(N4CCNCC4)cn3)nc2n(C2CCCC2)c1=O [Palbociclib] (partner 0.5 µM)
Procedure, shortened: as §1

[3] = compound: C1CC1C(=O)NC2=NNC3=C2C=CC(=C3)C4=CC(=CC=C4)C(=O)NC5CC5 [XMD13-2] + CS(=O)(=O)CCNCc1ccc(-c2ccc3ncnc(Nc4ccc(OCc5cccc(F)c5)c(Cl)c4)c3c2)o1 [Lapatinib] (partner 2 µM)
Procedure, shortened: as §1

[4] = compound: C1CC1C(=O)NC2=NNC3=C2C=CC(=C3)C4=CC(=CC=C4)C(=O)NC5CC5 [XMD13-2] + N=C(N)NC(=N)NCCc1ccccc1 [Phenformin] (partner 250 µM)
Procedure, shortened: as §1

| Cell Line | relative viability ([1]; first compound 0.08 µM) | relative viability ([1]; first compound 0.253 µM) | relative viability ([1]; first compound 0.8 µM) | relative viability ([1]; first compound 2.53 µM) | relative viability ([1]; first compound 8 µM) | relative viability ([2]; first compound 0.08 µM) | relative viability ([2]; first compound 0.253 µM) | relative viability ([2]; first compound 0.8 µM) | relative viability ([2]; first compound 2.53 µM) | relative viability ([2]; first compound 8 µM) | relative viability ([3]; first compound 0.05 µM) | relative viability ([3]; first compound 0.1581 µM) | relative viability ([3]; first compound 0.5 µM) | relative viability ([3]; first compound 1.581 µM) | relative viability ([3]; first compound 5 µM) | relative viability ([4]; first compound 0.05 µM) | relative viability ([4]; first compound 0.1581 µM) | relative viability ([4]; first compound 0.5 µM) | relative viability ([4]; first compound 1.581 µM) | relative viability ([4]; first compound 5 µM) |
| --- | --- | --- | --- | --- | --- | --- | --- | --- | --- | --- | --- | --- | --- | --- | --- | --- | --- | --- | --- | --- |
| NCI-H1355 | 0.71 | 0.805 | 0.738 | 0.695 | 0.606 | 0.372 | 0.428 | 0.376 | 0.4 | 0.436 | 1.13 | 0.942 | 1.05 | 0.997 | 1.06 | 0.5 | 0.451 | 0.465 | 0.462 | 0.517 |
| NCI-H2170 | 1.03 | 0.775 | 0.833 | 0.835 | 0.817 | 0.367 | 0.451 | 0.381 | 0.403 | 0.364 | 0.307 | 0.272 | 0.278 | 0.284 | 0.266 | 0.482 | 0.433 | 0.424 | 0.399 | 0.398 |
| NCI-H2347 | 1.02 | 0.727 | 0.606 | 0.676 | 0.638 | 0.528 | 0.452 | 0.43 | 0.432 | 0.478 | 0.987 | 0.93 | 0.912 | 1.04 | 0.973 | 0.615 | 0.507 | 0.404 | 0.26 | 0.51 |
| A-427 | 0.714 | 0.814 | 0.634 | 0.759 | 0.482 | 0.491 | 0.523 | 0.556 | 0.561 | 0.51 | 1.1 | 1.01 | 1.1 | 1.01 | 1.05 | 0.37 | 0.252 | 0.334 | 0.263 | 0.282 |
| HCC-366 | 0.264 | 0.259 | 0.24 | 0.245 | 0.203 | 0.354 | 0.454 | 0.388 | 0.299 | 0.326 | 1.3 | 1.04 | 1.07 | 1.09 | 1.12 | 0.705 | 0.577 | 0.633 | 0.569 | 0.611 |
| HCC-78 | 0.614 | 0.693 | 0.684 | 0.611 | 0.713 | 0.434 | 0.47 | 0.488 | 0.509 | 0.416 | 1.2 | 0.775 | 0.782 | 0.616 | 0.521 | 0.831 | 0.755 | 0.661 | 0.671 | 0.684 |
| PC-14 | 0.445 | 0.318 | 0.447 | – | 0.236 | 0.454 | 0.568 | 0.471 | 0.551 | 0.41 | 0.38 | 0.324 | 0.39 | 0.337 | 0.345 | 0.635 | 0.794 | 0.556 | 0.478 | 0.838 |
| NCI-H2087 | 1.52 | 1.46 | 1.18 | 1.14 | 1.11 | 0.227 | 0.261 | 0.239 | 0.255 | 0.22 | 1.06 | 1.48 | 1.01 | 1.23 | 0.737 | 0.479 | 0.487 | 0.515 | 0.498 | 0.362 |
